According to US20080051365A1, “Treatment of Inflammation” (CAN-FITE BIOPHARMA LTD., priority 2004, published 2008):

Legend:
[1] = test system: Adjuvant induced Arthritis (AIA) rats; assay: Adjuvant induced arthritis (AIA) in rats, arthritis clinical score; type: in vivo, rat; details: female Lewis rats, CF101 10 μg/kg orally twice daily from day 14, MTX 0.25 or 0.75 mg/kg intraperitoneally every 3 days from day 14, versus vehicle
Procedure: Female Lewis rats, aged 8-12 weeks were obtained from Harlan Laboratories (Jerusalem, Israel). Rats were maintained on a standardized pelleted diet and supplied with tap water. Experiments were performed in accordance with the guidelines established by the Institutional Animal Care and Use Committee at Can-Fite BioPharma, Petah Tikva, Israel. The rats were injected subcutaneously (SC) at the tail base with 100 μl of suspension composed of incomplete Freund's adjuvant (IFA) with 10 mg/ml heat killed Mycobacterium tuberculosis, (Mt) H37Ra, (Difco, Detroit, USA). Each group contained 10 animals.
Treatment with CF101 (10 μg/kg) was initiated on day 14 after vaccination and was orally administered by gavage, twice daily. Another group was treated with Methotrexate (MTX) (0.25, 0.75 mg/kg) intraperitoneally every 3 days, starting on day 14th after vaccination. The control group in each experiment received vehicle only (DMSO in a dilution corresponding to that of the drugs).
Clinical Disease Activity Score was assessed as follows: the animals were inspected every second day for clinical arthritis. […] The clinical score was calculated by adding the four individual legs' score. The inflammatory intensity was also determined in accordance with the increase in the rat hind paw's diameter, measured by caliper (Mitotoyo, Tokyo, Japan).

[2] = oral CF101, healthy young men; cited from earlier work
[3] = cited from earlier work

CNC(=O)[C@H]1OC(n2cnc3c(NCc4cccc(I)c4)ncnc32)[C@H](O)[C@@H]1O (stereo partly drawn) [CF101, 1-deoxy-1-[6-[[(3-iodophenyl)methyl]amino]-9H-purine-9-yl]-N-methyl-D-ribofuranuronamide]
disease severity evaluated by the arthritis clinical score [1]: significant decrease in disease severity
half life in human plasma [2]: 8 to 10 h
half life in mice [3]: 1.5 h

CN(Cc1cnc2nc(N)nc(N)c2n1)c1ccc(C(=O)N[C@@H](CCC(=O)O)C(=O)O)cc1 [MTX, Methotrexate, reference compound]
disease severity evaluated by the arthritis clinical score [1]: significant decrease in disease severity
